Data on 4 compounds can be found in US20070232563A1, “Method for Enhancing Biological Activity and/or Expanding Suitable Region for Biological Activity of Living Body Contacting with Aqueous Environment” (Kabushiki Kaisha Hayashibara Seibutsu Kagaku Kenky, priority 2004, published 2007).

SMILES strings stand for the structures.

For test [1], the system named is colbicula (Corbicula leana). The test can be described thus: Biological activity of corbicula (aqueduct extension score) in aqueous mineral solutions. Type of test: in vivo. As to conditions: saccharide 1 w/v %, total of 18 shellfishes, 16 h. The source says:
Influence of various saccharides was judged by observing the degree of extending aqueduct of the shellfish; 3 points: its aqueduct is well extended; 2 points: its aqueduct is slightly extended; 1 point: its aqueduct is not extended but its shells are opened; 0 point: its shells are closed. The effect on biological activity was judged by the total point of 18 shellfishes.
Suitable region for biological activity was examined by using colbicula (Corbicula leana) as fishes and shellfishes living in fresh water in the case of enhancing their biological activity by using aqueous mineral solutions containing various saccharides. In detail, solar salt (85% by weight of sodium chloride and 15% by weight of magnesium) as minerals was dissolved in tap water kept in a container for two days to give final concentrations described in the following Table 4. Saccharide (any one of D-glucose, maltose, sucrose, maltitol, α,α-trehalose, α-maltosyl α,α-trehalose, maltotetraose and cyclic tetrasaccharide) was dissolved in the resulting salt solutions to give a final concentration of 1 w/v %, on a dry solid basis. The resulting each solution was placed in a plastic bat. Eighteen pre-selected active shellfishes in one group were placed in the bat. The bat was shaded with a black cloth and left at ambient temperature (18° C.) for 16 hours. As a control, an aqueous solar salt solution without saccharides was prepared. Biological activity of the shellfish was judged by measuring extend their aqueducts macroscopically in the same manner as in Experiment 1.
Effective concentration range of α,α-trehalose or α-maltosyl α,α-trehalose on enhancing biological activity and/or influencing on suitable region for biological activity of colbicula (Corbicula leana) was determined according to the method of Experiment 4 by examining biological activity of the shellfish in the aqueous mineral solution with a mineral concentration of 1.5 w/v %, where α,α-trehalose or α-maltosyl α,α-trehalose was effective in Experiment 4, containing α,α-trehalose or α-maltosyl α,α-trehalose at a concentration of 0.01, 0.1, 1, 2, 3 or 4 w/v %, on a dry solid basis. As a control, a solution containing 1.5 w/v % of mineral without such saccharides was prepared and treated in the same manner.

Test [2] concerns short-necked clam (Ruditapes philippinarum). The test can be described thus: Biological activity of short-necked clam (aqueduct extension score) in aqueous mineral solutions. Type of test: in vivo. As to conditions: saccharide 1 w/v %, total of 18 clams, 16 h. As to the method:
Suitable region for biological activity of short-necked clam (Ruditapes philippinarum), as a fish or shellfish living in seawater, was examined by adding various saccharides to mineral aqueous solutions with various concentrations. In detail, solar salt (85% by weight of sodium chloride and 15% by weight of magnesium) as minerals was dissolved in running water kept in a container for two days to give final concentrations described in the following Table 1. Saccharide (any one of D-glucose, maltose, sucrose, maltitol, α,α-trehalose, α-maltosyl α,α-trehalose, maltotetraose and cyclic tetrasaccharide) was dissolved in the resulting salt solutions to give a final concentration of 1 w/v %, on a dry solid basis. Each of the resulting solutions was placed in a plastic bat. Eighteen pre-selected active short-necked clam in one group were placed in the bat. The bat was shaded with a black cloth and left at ambient temperature (18° C.) for 16 hours. As a control, an aqueous solar salt solution without any saccharides was prepared. Saccharides except for α-maltosyl α,α-trehalose as a saccharide derivatives thereof and cyclic tetrasaccharide were chosen from commercialized products. α-Maltosyl α,α-trehalose as saccharide derivatives of α,α-trehalose in a powder form with a purity of 98 w/w % or over was prepared by the method disclosed in Experiment 4 in Japanese Patent Kokai No. 143876/1995. Cyclic tetrasaccharide in a crystalline form with a purity of 98 w/w % or over, on a dry solid basis, was prepared by the method disclosed in Example A-7 in International Patent Publication No. WO02/10361. Influence of various saccharides was judged by observing the degree of extending aqueduct of the shellfish; 3 points: its aqueduct is well extended; 2 points: its aqueduct is slightly extended; 1 point: its aqueduct is not extended but its shells are opened; 0 point: its shells are closed. The effect on biological activity was judged by the total point of 18 shellfishes. To investigate the effective concentration range of α,α-trehalose or α-maltosyl α,α-trehalose against a mineral solution with a concentration of 1.5 w/v % or 4.5 w/v %, where α,α-trehalose or α-maltosyl α,α-trehalose was remarkably effective in Experiment 1, the following experiment using α,α-trehalose or α-maltosyl α,α-trehalose at a concentration of 0.01, 0.1, 1, 2, 3 or 4 w/v % was carried out according to the method in Experiment 1. As a control, mineral aqueous solutions with a concentration of 1.5 w/v % or 4.5 w/v % without any of the saccharides were prepared and carried out in the same manner.

With `OC[C@@H](O)[C@@H](O[C@H]1O[C@H](CO)[C@@H](O)[C@H](O)[C@H]1O)[C@H](O)[C@@H](O)CO` [Maltitol, maltitol], the “Judgment score of biological activity” value was determined as 50 in test [1] (mineral concentration 0); 47 in test [1] (mineral concentration 0.5); 25 in test [1] (mineral concentration 1.0); 18 in test [1] (mineral concentration 1.5); 13 in test [1] (mineral concentration 2.0); 2 in test [1] (mineral concentration 2.5). In test [1] (mineral concentration 3.0), the “Judgment score of biological activity” value is 0. For the same compound, the “Judgment score for biological activity” value is listed as 8 in test [2] (mineral 0 w/v %); 11 in test [2] (mineral 0.5 w/v %); 15 in test [2] (mineral 1.0 w/v %); 20 in test [2] (mineral 1.5 w/v %); 30 in test [2] (mineral 2.0 w/v %); 41 in test [2] (mineral 2.5 w/v %). In addition, the “Judgment score for biological activity” value in test [2] (mineral 3.0 w/v %) is on record as 48; in test [2] (mineral 3.5 w/v %), 47; in test [2] (mineral 4.0 w/v %), 32; in test [2] (mineral 4.5 w/v %) it was 16; in test [2] (mineral 5.0 w/v %), 12; in test [2] (mineral 5.5 w/v %), 5. For the same compound, the “Judgment score for biological activity” value in test [2] (mineral 6.0 w/v %) came out at 0.
Regarding `OC[C@H]1O[C@H](O[C@H]2[C@H](O)[C@@H](O)C(O)O[C@@H]2CO)[C@H](O)[C@@H](O)[C@@H]1O` (mixture of isomers) [Maltose, maltose], the “Judgment score of biological activity” value amounted to 51 in test [1] (mineral concentration 0); 49 in test [1] (mineral concentration 0.5); 18 in test [1] (mineral concentration 1.0); 15 in test [1] (mineral concentration 1.5); 14 in test [1] (mineral concentration 2.0); 9 in test [1] (mineral concentration 2.5). For the same compound, the “Judgment score of biological activity” value in test [1] (mineral concentration 3.0) is 0. The “Judgment score for biological activity” value came to 4 in test [2] (mineral 0 w/v %); 12 in test [2] (mineral 0.5 w/v %); 14 in test [2] (mineral 1.0 w/v %); 15 in test [2] (mineral 1.5 w/v %); 32 in test [2] (mineral 2.0 w/v %); 44 in test [2] (mineral 2.5 w/v %). The “Judgment score for biological activity” value in test [2] (mineral 3.0 w/v %) amounted to 48; in test [2] (mineral 3.5 w/v %), 42; in test [2] (mineral 4.0 w/v %) it was 32; in test [2] (mineral 4.5 w/v %), 25; in test [2] (mineral 5.0 w/v %) it was 8; in test [2] (mineral 5.5 w/v %) it was 3. The “Judgment score for biological activity” value in test [2] (mineral 6.0 w/v %) turned out to be 0.
`OC[C@H]1O[C@H](O[C@H]2[C@H](O)[C@@H](O)[C@@H](O[C@H]3[C@H](O)[C@@H](O)[C@@H](O[C@H]4[C@H](O)[C@@H](O)C(O)O[C@@H]4CO)O[C@@H]3CO)O[C@@H]2CO)[C@H](O)[C@@H](O)[C@@H]1O` (some centres unmarked) [Maltotetraose, maltotetraose]: the “Judgment score of biological activity” value came to 51 in test [1] (mineral concentration 0); 49 in test [1] (mineral concentration 0.5); 19 in test [1] (mineral concentration 1.0); 14 in test [1] (mineral concentration 1.5); 11 in test [1] (mineral concentration 2.0); 9 in test [1] (mineral concentration 2.5). Further, the “Judgment score of biological activity” value in test [1] (mineral concentration 3.0) was found to be 0. The “Judgment score for biological activity” value in test [2] (mineral 0 w/v %) is 7; in test [2] (mineral 0.5 w/v %), 11; in test [2] (mineral 1.0 w/v %), 12; in test [2] (mineral 1.5 w/v %), 16; in test [2] (mineral 2.0 w/v %) it was 28; in test [2] (mineral 2.5 w/v %), 45. Besides, the “Judgment score for biological activity” value in test [2] (mineral 3.0 w/v %) came to 46; in test [2] (mineral 3.5 w/v %), 42; in test [2] (mineral 4.0 w/v %) it was 31; in test [2] (mineral 4.5 w/v %), 26; in test [2] (mineral 5.0 w/v %) it was 14; in test [2] (mineral 5.5 w/v %), 5. Besides, the “Judgment score for biological activity” value in test [2] (mineral 6.0 w/v %) was determined as 0.
For `OC[C@H]1O[C@@H]2OC[C@H]3O[C@H](O[C@@H]4[C@@H](O)[C@@H](OC[C@H]5O[C@H](O[C@H]([C@H]2O)[C@@H]1O)[C@H](O)[C@@H](O)[C@@H]5O)O[C@H](CO)[C@H]4O)[C@H](O)[C@@H](O)[C@@H]3O` [Cyclic tetrasaccharide, cyclic tetrasaccharide], the “Judgment score of biological activity” value in test [1] (mineral concentration 0) is reported as 51; in test [1] (mineral concentration 0.5), 50; in test [1] (mineral concentration 1.0) it was 29; in test [1] (mineral concentration 1.5), 16; in test [1] (mineral concentration 2.0), 13; in test [1] (mineral concentration 2.5), 12. Moreover, the “Judgment score of biological activity” value in test [1] (mineral concentration 3.0) was determined as 1. Besides, the “Judgment score for biological activity” value came to 6 in test [2] (mineral 0 w/v %); 10 in test [2] (mineral 0.5 w/v %); 15 in test [2] (mineral 1.0 w/v %); 16 in test [2] (mineral 1.5 w/v %); 30 in test [2] (mineral 2.0 w/v %); 43 in test [2] (mineral 2.5 w/v %). Further, the “Judgment score for biological activity” value in test [2] (mineral 3.0 w/v %) is 49; in test [2] (mineral 3.5 w/v %), 41; in test [2] (mineral 4.0 w/v %), 30; in test [2] (mineral 4.5 w/v %), 17; in test [2] (mineral 5.0 w/v %), 11; in test [2] (mineral 5.5 w/v %), 0. Moreover, in test [2] (mineral 6.0 w/v %), the “Judgment score for biological activity” value was 0.
